What was measured:
[1] = system: L929 cells; assay: Apoptosis induction by azoles in L929 cells with TGF-beta; type: cell-based, murine; conditions: 2 mM histidine; 3-AT at 25 mM
Method: FIG. 3 discloses experimental data obtained with 25000 L929 cells in 48 well tissue culture clusters in the presence of 20 ng/ml TGF-beta. Itraconazole was added at the indicated concentrations, in the presence or absence of 2 mM histidine (singlet oxygen scavenger). The percentage of apoptotic cells was determined after 37 hrs.
The dashed lines indicate the percentage of apoptotic cells obtained when the tumor cell catalase was blocked by 25 mM […] (3-AT).
FIG. 4 discloses experimental data obtained with 25000 L929 cells in 48 well tissue culture clusters in the presence of 20 ng/ml TGF-beta. “No addition” represents the control without addition of compound. […] The percentage of apoptotic cells was determined after 63 hrs.
The first step comprises contacting tumor cells in media comprising TGF-beta with the test compounds to be analyzed for their properties of apoptosis induction. After a specific incubation time, the extent of apoptosis induction is determined, e.g. after two days. Methods for determining the apoptosis in cells in a quantitative manner are well known in the art and are for example described by Jürgensmeier et al. (Cancer Research 1994; 54:393-398). […] These features of apoptotic cells can be determined through phase contrast microscopy or after chromatin staining with fluorescent dyes, followed by fluorescence microscopy. […]

[2] = system: SKNMC cells (human neuroblastoma); assay: Apoptosis induction in SKNMC cells with ROS pathway inhibitors (FIG. 5); type: cell-based
Method: FIG. 5 discloses experimental data obtained with 25 000 SKNMC cells (human neuroblastoma) in 48 well tissue culture clusters (without addition of TGF-beta). […] Control assays contained the respective compound in the absence of any inhibitors. Parallel assays contained either 200 μM of the NADPH (nicotinamide adenine dinucleotide phosphate) oxidase inhibitor AEBSF, 10 μM of the nNOS-specific NO synthetase inhibitor 3-Br-7-Ni (3-bromo-7-nitroindazole), 2 mM of the singlet oxygen scavenger histidine or 50 mM of the HOCl scavenger taurine. The percentage of apoptotic cells was determined at the indicated time points.
For all inducers, apoptosis induction was dependent on superoxide anion generation and NO synthesis, as it was blocked by AEBSF and 3-Br-7-Ni respectively. In contrast to the NO/peroxynitrite pathway, the HOCl pathway played no role for apoptosis induction in this particular line. Apoptosis induction by all azoles tested depended on singlet oxygen action, as it was blocked by histidine.

[3] = system: Gumbus; assay: Inhibitor effect on inducer-mediated apoptosis, Gumbus cells (Example 6); type: cell-based
Method: (§1) The effect of a singlet oxygen scavenger, a NO synthase inhibitor and a HOCl scavenger on either the destruction of the catalase or the HOCl pathway was determined by the following experiment. 12500 SISO cells in 100 μl media in 96 tissue wells were treated with taxol (20 μg/ml) in the presence of TGF-β (20 ng/ml). In addition, the singlet oxygen scavenger, the NO synthase inhibitor or the HOCl scavenger was added at different points of time in the experiments.
(§2) Further experiments have been carried out using different types of cells and different apoptosis inhibitors. The experimental setup was analogue to the examples 5a-5c and the late addition of the inhibitor (histidine, L-NAME, 3-Br-7-Nitroindazole or taurine) was performed 1 hour after beginning of the experiment. The concentrations of taxol, histidine, L-NAME and taurine were the same as in the experiments 5a-5c. 3-Br-7-Nitroindazole was added at a concentration of 10 μm. The apoptosis inducing compounds were added at increasing concentrations (0-5 mM arginine, 0-20 μg/ml taxol, 0-20 μg/ml artemisine, 0-20 μg/ml xanthohumol, 0-20 μg/ml itraconazole, 0-10 μg/ml miconazole, 0-20 μg/ml antibody against Apo/FAS receptor). In each of the experiments, the effect of the inhibitors on the singlet oxygen mediated catalase destruction and/or the subsequent ROS signaling could be observed. […] Addition of histidine at the beginning of the experiment caused inhibition in all experiments and for all cell lines shown. […] The experiments using neuroblastoma cells only display apoptosis mediated by the NO pathway as these cells only release small amounts of peroxidase. Therefore, addition of the nNOS-specific inhibitor 3-Br-7NI caused inhibition of apoptosis, irrespective of the time of addition. […] Addition of taurine in the presence of higher concentrations of inducers inhibited apoptosis irrespective of the time of addition (zero versus one hour), as HOCl is only involved in intercellular signaling, but not in catalase destruction.

[4] = system: SKNMC; assay: Inhibitor effect on inducer-mediated apoptosis, SKNMC cells (Example 6); type: cell-based, human
Method: as §1
(§3) Further experiments have been carried out using different types of cells and different apoptosis inhibitors. The experimental setup was analogue to the examples 5a-5c and the late addition of the inhibitor (histidine, L-NAME, 3-Br-7-Nitroindazole or taurine) was performed 1 hour after beginning of the experiment. The concentrations of taxol, histidine, L-NAME and taurine were the same as in the experiments 5a-5c. 3-Br-7-Nitroindazole was added at a concentration of 10 μm. The apoptosis inducing compounds were added at increasing concentrations (0-5 mM arginine, 0-20 μg/ml taxol, 0-20 μg/ml artemisine, 0-20 μg/ml xanthohumol, 0-20 μg/ml itraconazole, 0-10 μg/ml miconazole, 0-20 μg/ml antibody against Apo/FAS receptor). In each of the experiments, the effect of the inhibitors on the singlet oxygen mediated catalase destruction and/or the subsequent ROS signaling could be observed. […]

[5] = system: SISO cells (human cervix carcinoma); assay: Apoptosis induction by taxol in SISO cells, 48 well (FIGS. 6-8, Example 4); type: cell-based; conditions: for synergistic effect with taxol on apoptosis: 10 mM arginine, 200 μM Nor-NOHA or both, suboptimal taxol, 20 ng/ml TGF
Method: FIG. 6 discloses experimental data obtained with 25000 SISO cells (human cervix carcinoma) cultured in 48 well tissue culture clusters in the presence of the indicated concentrations of the established chemotherapeutic compound taxol. The assays contained 2 mM Histidine or not.
FIG. 7 discloses experimental data obtained with 25000 SISO cells (human cervix carcinoma) cultured in 48 well tissue culture clusters either in the absence of any inducer (“no addition”) or in the presence of 10 μg/ml taxol (“TAX”) without further additions or with the addition of 100 μM of the NADPH oxidase inhibitor AEBSF, 100 U/ml of the superoxide anion scavenger SOD (Manganese-containing SOD from E. coli), 100 U/ml catalase, 150 μM of the peroxidase inhibitor ABH (aminobenzoylhydrazide), 50 mM of the HOCl scavenger taurine, 1 mM of the hydroxyl radical scavenger mannitol, 2.4 mM of the NO synthase inhibitor L-NAME, and 25 μM of the inhibitors for caspase 3, −9 and 8.
FIG. 8 discloses experimental data obtained with 25 000 SISO cells in 48 well tissue culture clusters in the presence of 20 ng/ml TGF and the indicated concentrations of taxol. Where indicated, taxol containing assays received 10 mM arginine (10 ARG), 200 μM Nor-NOHA or a combination of both.
Human SISO cells are used in a 48-well plate (Costar) in 200 μl media with a cell concentration of 25,000. The media comprises 20 ng/ml TGF-beta and furthermore Taxol subjected for testing in a concentration ranging from 1.25-20 ng/ml. For comparison, control experiments are performed without Taxol which is tested for apoptosis induction.
Step 2 is carried out with the same conditions as specified for step 1, whereas all cells are contacted with taxol. In addition, histidine (2 mM) is added to the cells, whereas also experiments without histidine are performed as control experiments.
In a further experiment using the conditions of step 1, human tumor cells (SISO) are contacted with taxol (10 μg/ml) and 100 μM of the NADPH oxidase inhibitor AEBSF, 100 U/ml of the superoxide anion scavenger SOD (Manganese-containing SOD from E. coli), 100 U/ml catalase, 150 μM of the peroxidase inhibitor ABH (aminobenzoylhydrazide), 50 mM of the HOCl scavenger taurine, 1 mM of the hydroxyl radical scavenger mannitol or 2.4 mM of the NO synthase inhibitor L-NAME.

[6] = system: MKN-45; assay: Inhibitor effect on inducer-mediated apoptosis, MKN-45 cells (Example 6); type: cell-based
Method: as §1, §2

[7] = system: normal diploid fibroblasts; assay: Toxicity test on normal diploid fibroblasts (step 3); type: cell-based; conditions: conditions of step 1, two days; data not shown
Method: The method for identifying suitable compounds can additionally comprise a third step. The third step comprises contacting the identified compounds from step 2 with normal diploid fibroblasts in order to determine whether these compounds induce apoptosis or other toxic reactions and are therefore not suitable for a medical use.
The experimental conditions are the same as for step 1, whereas the cells used for step 3 are normal diploid fibroblasts. Control experiments are carried out without the test compound, and the cells are incubated for two days.

[8] = system: SISO cells (human cervix carcinoma); assay: Apoptosis induction by taxol in SISO cells, 48 well (FIGS. 6-8, Example 4); type: cell-based
[9] = system: SISO cells; assay: Timed inhibitor addition on inducer-mediated apoptosis in SISO cells, 96 well (Examples 5, 6); type: cell-based, human
Method: FIG. 9 discloses experimental data obtained with 12500 SISO cells in 96 well tissue culture clusters in the presence of 20 ng/ml TGF and the indicated concentrations of taxol. Furthermore, histidine was added at different time points in the experiment.
FIG. 11 refers to a similar experiment as described with respect to FIG. 8 or 9, whereas histidine/L-NAME was substituted by taurine (50 mM, scavenger of HOCl).
as §1
The concentrations of taxol, histidine, L-NAME and taurine were the same as in the experiments 5a-5c. 3-Br-7-Nitroindazole was added at a concentration of 10 μm. The apoptosis inducing compounds were added at increasing concentrations (0-5 mM arginine, 0-20 μg/ml taxol, 0-20 μg/ml artemisine, 0-20 μg/ml xanthohumol, 0-20 μg/ml itraconazole, 0-10 μg/ml miconazole, 0-20 μg/ml antibody against Apo/FAS receptor).

[10] = system: SHEP; assay: Inhibitor effect on inducer-mediated apoptosis, SHEP cells (Example 6); type: cell-based, human
Method: as §1, §3

[11] = SISO, inducer at increasing concentrations

Nc1nc[nH]n1 [3-AT, 3-aminotriazole]
effect of histidine on induced apoptosis [1]: not blocked by histidine | effect of histidine on induced apoptosis (singlet oxygen dependence) ([2]; 2 mM histidine): singlet oxygen is not required | apoptosis induction (percentage of apoptotic cells) ([2]; 12.5 or 25 μg/ml azole, 75 mM 3-AT, without TGF-beta): induced apoptosis in the tumor cells to a significant extent

N=C(N)NCCC[C@H](N)C(=O)O [Arginine]
apoptosis inhibitory effect of Histidine [3]: + | apoptosis inhibitory effect of L-NAME [3]: + | apoptosis inhibitory effect of Taurine [3]: + | apoptosis inhibitory effect of Histidine [4]: + | apoptosis inhibitory effect of 3-Br-7-NI ([4]; 3-Br-7-Nitroindazole 10 μm): + | synergistic effect with taxol on apoptosis [5]: synergistic effect

C[C@@H]1CC[C@H]2[C@@H](C)C(=O)O[C@@H]3O[C@@]4(C)CC[C@@H]1[C@]32OO4 [Artemisinine]
apoptosis inhibitory effect of Histidine [6]: + | apoptosis inhibitory effect of L-NAME [6]: + | apoptosis inhibitory effect of Taurine [6]: +

CCC(C)n1ncn(-c2ccc(N3CCN(c4ccc(OCC5COC(Cn6cncn6)(c6ccc(Cl)cc6Cl)O5)cc4)CC3)cc2)c1=O (centres unmarked) [Itraconazole]
apoptosis inhibitory effect of Histidine [3]: + | apoptosis inhibitory effect of L-NAME [3]: + | apoptosis inhibitory effect of Taurine [3]: +

Clc1ccc(COC(Cn2ccnc2)c2ccc(Cl)cc2Cl)c(Cl)c1 (centres unmarked) [Miconazole]
apoptosis inhibitory effect of Histidine [3]: + | apoptosis inhibitory effect of L-NAME [3]: + | apoptosis inhibitory effect of Taurine [3]: +

N=C(NO)NCC[C@H](N)C(=O)O [Nor-NOHA, N^omega-hydroxy-nor-L-arginine]
synergistic effect with taxol on apoptosis [5]: synergistic effect

CC(=O)O[C@H]1C(=O)[C@@]2(C)[C@H]([C@H](OC(=O)c3ccccc3)[C@]3(O)C[C@H](OC(=O)[C@H](O)[C@@H](NC(=O)c4ccccc4)c4ccccc4)C(C)=C1C3(C)C)[C@]1(OC(C)=O)CO[C@@H]1C[C@@H]2O [Taxol]
apoptosis induction in diploid fibroblasts [7]: did not induce significant apoptosis | apoptosis inhibitory effect of Histidine [3]: + | apoptosis inhibitory effect of L-NAME [3]: + | apoptosis inhibitory effect of Taurine [3]: + | signaling pathway used at low taxol concentration ([8]; 2 μg/ml taxol, data not shown): the NO pathway became more prominent | apoptosis induction in SISO cells with siRNA knockdown of superoxide anion generation ([8]; siRNA-based genetic knockdown): did not lead to taxol-mediated apoptosis induction | effect of histidine on taxol-induced apoptosis ([5]; 2 mM histidine): inhibited by histidine at all concentrations | apoptosis induction ([5]; Taxol 1.25-20 ng/ml, 20 ng/ml TGF-beta): apoptosis already occurs after 12.5 hours at all concentrations | caspase dependence of apoptosis induction ([5]; taxol 10 μg/ml, 25 μM inhibitors for caspase 3, -9 and 8): mediated by caspases 9 and 3 (mitochondrial pathway) and is independent of the death receptor specific caspase 8 | effect of inhibitors of superoxide anion generation (AEBSF, SOD) on taxol-mediated apoptosis ([5]; taxol 10 μg/ml, 100 μM AEBSF, 100 U/ml SOD): inhibited | effect of inhibitor of the NO pathway (L-NAME) on taxol-mediated apoptosis ([5]; taxol 10 μg/ml, 2.4 mM L-NAME): not by the inhibitor of the NO pathway | effect of inhibitors of the HOCl pathway (catalase, ABH, taurine, mannitol) on taxol-mediated apoptosis ([5]; taxol 10 μg/ml, 100 U/ml catalase, 150 μM ABH, 50 mM taurine, 1 mM mannitol): inhibited | effect of histidine added at the beginning on taxol-induced apoptosis ([9]; 2 mM histidine at start): inhibits the tumor apoptosis to a great extend | effect of late addition of L-NAME on taxol-induced apoptosis ([9]; 2.4 mM L-NAME 5 hours after beginning): only shows some inhibition at low taxol concentrations | effect of early addition of L-NAME on taxol-induced apoptosis ([9]; 2.4 mM L-NAME at start): inhibits tumor apoptosis | effect of taurine on taxol-induced apoptosis ([9]; 50 mM taurine at start or after 5 hours): only inhibits tumor apoptosis at high taxol concentrations | apoptosis inhibitory effect of Histidine [9, 11]: + | apoptosis inhibitory effect of L-NAME [9, 11]: + | apoptosis inhibitory effect of Taurine [9, 11]: + | effect of late addition of histidine on taxol-induced apoptosis ([9]; histidine 5 hours after beginning): only shows a small effect of apoptosis inhibition | apoptosis inhibitory effect of Histidine [10]: + | apoptosis inhibitory effect of 3-Br-7-NI ([10]; 3-Br-7-Nitroindazole 10 μm): +

COc1cc(O)c(CC=C(C)C)c(O)c1C(=O)/C=C/c1ccc(O)cc1 [Xanthohumol]
apoptosis inhibitory effect of Histidine [3]: + | apoptosis inhibitory effect of L-NAME [3]: + | apoptosis inhibitory effect of Taurine [3]: +
